Assay results from paper PMC10783051 (Microbiology Spectrum, 2023).

Assays:
[1] = tested on: Streptomyces venezuelae ATCC 10712; experiment: Confrontation assay B. velezensis GA1 / S. venezuelae on REM plate, UPLC-MS metabolite profiling of the agar
Procedure: Confrontation assays were performed on square Petri dishes (12 × 12 cm) with 40 mL of REM solid medium at 26°C (REM supplemented with 14 g/L of agar).
S. venezuelae ATCC 10712 was inoculated as stripes (1 × 12 cm) in the middle of the plate with 40 µL of spore suspension (10^7 spores/mL) and spread with a cotton swab. Next, B. velezensis GA1 cells were collected from fresh precultures as described and adjusted to OD600 nm 0.1. Then, 5 µL of B. velezensis GA1 suspension was spotted at 1 cm of the Streptomyces line. Control plates were done following the same procedure without the inoculation of either Bacillus or Streptomyces. Plates were then incubated for 3 days at 26°C in the dark. Pictures of the plates were then captured using a CoolPix camera (NIKKOR ×60 wide optical zoom extra-low dispersion vibration reduction 4.3–258.0 mm 1:33 to 6.5).
The extraction of the metabolites from the agar was performed as follows. For the confrontation experiment, we precisely sampled the area of agar (2 × 1 cm) near the colony of Bacillus or Streptomyces (the confrontation zone is 1 cm wide) with standardized plugs. For the in planta, we sampled the agar area (1 × 1 cm) near the tomato roots. In both cases, the agar samples were transferred to Eppendorf tubes and placed for 24 h at −20°C. Then, the agar was thawed at room temperature and centrifuged for 10 min at 13,000 rpm. The supernatants were then collected and filtered (0.22-µm pore size filters) before UPLC-MS analysis.
All UPLC-MS analyses were performed using an Agilent 1290 Infinity II coupled with a diode array detector and a mass detector (Jet Stream ESI-Q-TOF 6530) in positive mode with the parameters set up as follows: capillary voltage of 3.5 kV, nebulizer pressure of 35 lb/in^2, drying gas of 8 L/min, drying gas temperature of 300°C, flow rate of sheath gas of 11 L/min, sheath gas temperature of 350°C, fragmentor voltage of 175 V, skimmer voltage of 65 V, and octopole radiofrequency of 750 V. Accurate mass spectra were recorded in the m/z range of 300–1,700. For untargeted MS/MS, we used the same MS1 parameters as described. We added MS2 untargeted acquisition mode with the parameters as follows: MS/MS range 50–1,700 m/z; MS/MS scan rate 3 spectra/s; isolation width MS/MS medium (approx. 4 AMU), Decision Engine Native; fixed collision energies of 25 and 40 V for surfactin, 50 V for iturin, and 60 V for fengycin experiments; precursor selection: three for the surfactin experiment, four for the iturin and fengycin experiments, threshold 1,500 (Abs), isotope model common, active exclusion after two spectra and release after 0.5 min, sorting the precursors by charge state then abundance (charge state preference 1). For targeted MS/MS, we used the same MS1 parameters MS/MS range of 50–1,700 m/z or 50–3,200 (when required for Pseudomonas CLPs with mass >1,700 Da), MS/MS scan rate 3 spectra/s, isolation width MS/MS narrow (approx. 1.3 amu), and fixed collision energies 20, 40, and 60V. In all experiments, a C18 Acquity UPLC ethylene bridged hybrid column (2.1 mm × 50 mm × 1.7 µm; Waters Corporation, Milford, MA, USA) was used at a flow rate of 0.6 mL/min and a temperature of 40°C. The injection volume was 20 µL, and the diode array detector scanned a wavelength spectrum between 190 and 600 nm. Unless otherwise mentioned, a gradient of acidified water (0.1% formic acid) (solvent A) and of acidified acetonitrile (0.1% formic acid) (solvent B) was used as mobile phase with a constant flow rate of 0.6 mL/min, starting at 10% B and rising to 100% B in 20 min. Solvent B was kept at 100% for 4 min before going back to the initial ratio. MassHunter Workstation (version 10.0) and ChemStation software were used for data collection and analysis. For untargeted analysis of iturin and fengycin degradation products, we used the same solvent and flow rate, starting at 10% B to 20% in 2 min, then rising to 50% B at 14 min and 100% B at 25 min, followed by 100% B and 5 at 10% B at 6 min.

tobacco cells = details: cited from earlier work
Text: Additionally, CLPs are key multifunctional BSMs whose biocontrol-associated activities often involve membrane perturbation and pore formation ([16]). This CLP-membrane interaction is enabled by the peculiar amphiphilic three-dimensional structures of those CLPs ([17], [18]). However, since the degradation alters their structures, it is likely associated with a loss of function. […] Likewise, linearization of su ...

[2] = tested on: Streptomyces venezuelae ATCC 10712; experiment: In planta co-inoculation on tomato roots, UPLC-MS of rhizosphere extracts; details: tomato roots on Hoagland agar, 7 days at 22°C, UPLC-MS of agar near the roots, four biological replicates
Procedure: For the in planta studies, tomato seeds (Solanum lycopersicum var. Moneymaker) were sterilized following the protocol described by ([26]). Briefly, tomato seeds were primarily sterilized in 70% ethanol (vol/vol) by gently shaking for 2 min. Further, the ethanol was removed and the seeds were added to 50 mL of the sterilization solution [4.5 mL of bleach containing 9.5% (vol/vol) of active chlorine, 0.01 g of Tween 80, and 45.5 mL of sterile water] and gently shaken for 10 min. Seeds were thereafter washed 10 times with water to eliminate sterilization solution residues. […]
All UPLC-MS analyses were performed using an Agilent 1290 Infinity II coupled with a diode array detector and a mass detector (Jet Stream ESI-Q-TOF 6530) in positive mode with the parameters set up as follows: capillary voltage of 3.5 kV, nebulizer pressure of 35 lb/in^2, drying gas of 8 L/min, drying gas temperature of 300°C, flow rate of sheath gas of 11 L/min, sheath gas temperature of 350°C, fragmentor voltage of 175 V, skimmer voltage of 65 V, and octopole radiofrequency of 750 V. Accurate mass spectra were recorded in the m/z range of 300–1,700. […]

Streptomyces = details: cited from earlier work
Text: As soils are carbon-rich and nitrogen-poor environments, exogenous CLP degradation may thus represent a foraging strategy for Streptomyces to access alternative sources of nutriments directly emanating from diverse microbial competitors. We assume that, in this ...

surfactin
abundance of the CLP in the confrontation zone compared with monocultures [1]: decrease in the abundance | shorter CLP fragment detected in the confrontation zone but not in Bv monoculture [1]: loss of the fatty acid from the linear form | effect of linearization on the potential to stimulate immune-related defense responses (tobacco cells): almost full loss | linear forms in rhizosphere extracts upon co-inoculation of Bv with Sv [2]: high proportion of linear | effect on aerial mycelium formation of Streptomyces (Streptomyces): inhibitory effect
